Experimental data taken from paper PMC5761851, “Application of a phenotypic drug discovery strategy to identify biological and chemical starting points for inhibition of TSLP production in lung epithelial cells” (PLoS ONE, 2018).

How the values were obtained:
Experiment in all cases: kinase selectivity panel
Assay type in all cases: biochemical
PDGFRβ = biological target: T1, PDGFRβ (Homo sapiens, UniProt P09619); conditions: read-out: percentage of control activity (POC), PDGFRβ
T1 construct: purchased Eurofins Pharma Discovery Services (KinaseProfiler; Cerep BioPrint panel)
How it was run: (§1)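 First, 125 representative kinases were exposed to 10 μM compound in duplicate; next, selected activities were titrated over 9 concentrations in duplicate, and IC50 values were calculated.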

PI3K (p110b/p85a) = biological target: T2, PI3K (p110b/p85a) (Homo sapiens, UniProt P42338); conditions: read-out: percentage of control activity (POC), PI3K (p110b/p85a)
T2 construct: purchased Eurofins Pharma Discovery Services (KinaseProfiler; Cerep BioPrint panel)
How it was run: as §1

ZAP-70 = biological target: T3, ZAP-70 (Homo sapiens, UniProt P43403); conditions: read-out: percentage of control activity (POC), ZAP-70
T3 construct: purchased Eurofins Pharma Discovery Services (KinaseProfiler; Cerep BioPrint panel)
T3 sequence (P43403 1-619): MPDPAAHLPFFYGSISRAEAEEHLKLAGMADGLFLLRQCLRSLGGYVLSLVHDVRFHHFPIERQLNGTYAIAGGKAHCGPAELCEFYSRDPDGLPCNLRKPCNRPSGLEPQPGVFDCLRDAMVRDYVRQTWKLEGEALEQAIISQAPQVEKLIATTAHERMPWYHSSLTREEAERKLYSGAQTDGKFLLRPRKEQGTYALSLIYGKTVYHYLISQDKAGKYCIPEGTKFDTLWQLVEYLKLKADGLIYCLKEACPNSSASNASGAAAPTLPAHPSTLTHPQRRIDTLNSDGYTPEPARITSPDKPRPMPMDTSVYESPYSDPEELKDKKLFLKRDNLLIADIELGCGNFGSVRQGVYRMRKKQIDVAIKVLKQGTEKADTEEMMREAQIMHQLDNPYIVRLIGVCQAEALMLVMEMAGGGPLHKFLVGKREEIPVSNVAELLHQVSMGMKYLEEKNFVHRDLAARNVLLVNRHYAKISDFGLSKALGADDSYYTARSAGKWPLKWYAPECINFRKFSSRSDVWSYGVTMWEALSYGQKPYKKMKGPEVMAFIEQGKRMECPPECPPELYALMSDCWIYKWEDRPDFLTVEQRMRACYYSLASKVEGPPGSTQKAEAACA
How it was run: as §1

MINK = biological target: T4, MINK (Homo sapiens, UniProt Q8N4C8); conditions: read-out: percentage of control activity (POC), MINK
T4 construct: purchased Eurofins Pharma Discovery Services (KinaseProfiler; Cerep BioPrint panel)
How it was run: as §1

Rsk4 = biological target: T5, Rsk4 (Homo sapiens, UniProt Q9UK32); conditions: read-out: percentage of control activity (POC), Rsk4
T5 construct: purchased Eurofins Pharma Discovery Services (KinaseProfiler; Cerep BioPrint panel)
How it was run: as §1

BTK = biological target: T6, BTK (Homo sapiens, UniProt Q06187); conditions: read-out: percentage of control activity (POC), BTK
T6 construct: purchased Eurofins Pharma Discovery Services (KinaseProfiler; Cerep BioPrint panel)
How it was run: as §1

DRAK1 = biological target: T7, DRAK1 (Homo sapiens, UniProt Q9UEE5); conditions: read-out: percentage of control activity (POC), DRAK1
T7 construct: purchased Eurofins Pharma Discovery Services (KinaseProfiler; Cerep BioPrint panel)
T7 sequence (Q9UEE5 1-414): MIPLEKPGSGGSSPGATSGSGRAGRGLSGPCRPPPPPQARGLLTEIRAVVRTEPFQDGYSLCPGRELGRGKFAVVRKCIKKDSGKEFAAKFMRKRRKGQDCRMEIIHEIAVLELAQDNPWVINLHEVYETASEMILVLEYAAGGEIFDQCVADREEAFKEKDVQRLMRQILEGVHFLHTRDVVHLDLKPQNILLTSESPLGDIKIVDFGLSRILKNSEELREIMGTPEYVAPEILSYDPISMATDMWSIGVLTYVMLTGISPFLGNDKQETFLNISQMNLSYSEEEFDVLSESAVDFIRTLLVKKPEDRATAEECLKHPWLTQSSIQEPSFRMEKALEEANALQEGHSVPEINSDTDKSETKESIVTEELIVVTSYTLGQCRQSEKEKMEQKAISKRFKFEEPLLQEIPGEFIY
How it was run: as §1

TrkA = biological target: T8, TrkA (Homo sapiens, UniProt P04629); conditions: for remaining activity at 10 µM: read-out: percentage of control activity (POC), TrkA
T8 construct: Eurofins Pharma Discovery Services (contract assay service)
How it was run: as §1

MKK6 = biological target: T9, MKK6 (Homo sapiens, UniProt P52564); conditions: for remaining activity at 10 µM: read-out: percentage of control activity (POC), MKK6
T9 construct: purchased Eurofins Pharma Discovery Services (KinaseProfiler; Cerep BioPrint panel)
T9 sequence (P52564 1-334): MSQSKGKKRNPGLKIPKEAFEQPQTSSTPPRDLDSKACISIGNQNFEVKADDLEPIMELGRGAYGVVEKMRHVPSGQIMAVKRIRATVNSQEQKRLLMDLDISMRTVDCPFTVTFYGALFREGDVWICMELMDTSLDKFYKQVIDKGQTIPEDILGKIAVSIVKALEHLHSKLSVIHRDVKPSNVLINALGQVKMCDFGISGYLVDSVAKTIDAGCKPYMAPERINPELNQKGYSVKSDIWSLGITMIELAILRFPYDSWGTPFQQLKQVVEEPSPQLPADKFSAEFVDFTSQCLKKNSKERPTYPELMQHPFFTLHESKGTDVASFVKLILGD
How it was run: as §1

eEF-2K = biological target: T10, eEF-2K (Homo sapiens, UniProt O00418); conditions: read-out: percentage of control activity (POC), eEF-2K
T10 construct: purchased Eurofins Pharma Discovery Services (KinaseProfiler; Cerep BioPrint panel)
How it was run: as §1

MAPK1 = biological target: T11, MAPK1 (Homo sapiens, UniProt P27361); conditions: read-out: percentage of control activity (POC), MAPK1
T11 construct: purchased Eurofins Pharma Discovery Services (KinaseProfiler; Cerep BioPrint panel)
How it was run: as §1

NEK2 = biological target: T12, NEK2 (Homo sapiens, UniProt P51955); conditions: read-out: percentage of control activity (POC), NEK2
T12 construct: purchased Eurofins Pharma Discovery Services (KinaseProfiler; Cerep BioPrint panel)
T12 sequence (P51955 1-445): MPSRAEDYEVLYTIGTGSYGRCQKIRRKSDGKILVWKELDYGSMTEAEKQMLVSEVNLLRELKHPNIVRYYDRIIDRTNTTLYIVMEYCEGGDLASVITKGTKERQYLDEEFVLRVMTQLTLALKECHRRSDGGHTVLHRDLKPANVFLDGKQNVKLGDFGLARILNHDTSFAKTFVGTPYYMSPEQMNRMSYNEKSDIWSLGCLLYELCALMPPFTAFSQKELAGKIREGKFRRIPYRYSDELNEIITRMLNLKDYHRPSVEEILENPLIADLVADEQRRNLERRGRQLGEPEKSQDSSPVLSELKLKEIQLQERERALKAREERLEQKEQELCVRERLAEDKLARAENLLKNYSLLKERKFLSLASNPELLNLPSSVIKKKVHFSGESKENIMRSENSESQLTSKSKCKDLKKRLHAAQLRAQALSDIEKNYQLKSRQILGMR
How it was run: as §1

T8 sequence (P04629 33-796, species assumed): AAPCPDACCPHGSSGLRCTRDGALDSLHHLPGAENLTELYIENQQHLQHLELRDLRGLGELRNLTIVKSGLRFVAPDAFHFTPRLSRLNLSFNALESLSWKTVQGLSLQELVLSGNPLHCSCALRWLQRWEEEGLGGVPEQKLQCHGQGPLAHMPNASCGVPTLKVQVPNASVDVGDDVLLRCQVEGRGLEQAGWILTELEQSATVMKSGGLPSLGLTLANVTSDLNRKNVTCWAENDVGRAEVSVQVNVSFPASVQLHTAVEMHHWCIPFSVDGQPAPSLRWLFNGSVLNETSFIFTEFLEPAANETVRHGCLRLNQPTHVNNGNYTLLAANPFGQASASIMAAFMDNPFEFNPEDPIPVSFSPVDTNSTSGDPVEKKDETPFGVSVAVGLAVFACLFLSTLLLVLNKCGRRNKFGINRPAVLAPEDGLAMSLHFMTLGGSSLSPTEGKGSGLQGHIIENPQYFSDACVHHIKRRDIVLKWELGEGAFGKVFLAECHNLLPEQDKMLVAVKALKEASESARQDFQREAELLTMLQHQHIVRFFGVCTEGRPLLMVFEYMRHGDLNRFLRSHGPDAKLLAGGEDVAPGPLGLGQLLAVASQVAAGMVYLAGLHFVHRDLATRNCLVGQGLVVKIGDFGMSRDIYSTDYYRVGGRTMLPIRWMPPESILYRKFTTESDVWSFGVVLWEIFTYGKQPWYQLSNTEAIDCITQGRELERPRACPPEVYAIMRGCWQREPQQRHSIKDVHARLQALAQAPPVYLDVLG
T6 sequence (Q06187 whole entry): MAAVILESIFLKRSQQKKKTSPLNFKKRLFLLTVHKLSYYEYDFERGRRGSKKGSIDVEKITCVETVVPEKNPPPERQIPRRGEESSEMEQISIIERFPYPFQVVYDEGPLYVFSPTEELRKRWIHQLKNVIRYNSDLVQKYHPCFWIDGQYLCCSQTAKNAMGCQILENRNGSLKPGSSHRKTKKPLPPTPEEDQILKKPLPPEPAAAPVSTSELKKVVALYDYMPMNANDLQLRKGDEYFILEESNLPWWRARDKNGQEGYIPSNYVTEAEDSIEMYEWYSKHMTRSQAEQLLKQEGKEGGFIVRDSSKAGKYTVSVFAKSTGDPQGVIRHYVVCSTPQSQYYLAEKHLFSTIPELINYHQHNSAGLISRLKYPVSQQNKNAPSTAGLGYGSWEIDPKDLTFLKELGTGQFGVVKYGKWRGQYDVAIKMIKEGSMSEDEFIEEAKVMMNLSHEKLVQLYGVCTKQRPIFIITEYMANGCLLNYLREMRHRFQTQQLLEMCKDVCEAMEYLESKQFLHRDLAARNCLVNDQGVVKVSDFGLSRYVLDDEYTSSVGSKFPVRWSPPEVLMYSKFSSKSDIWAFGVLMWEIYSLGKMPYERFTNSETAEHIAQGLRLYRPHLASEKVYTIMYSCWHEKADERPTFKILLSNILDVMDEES
T1 sequence (P09619 33-1106): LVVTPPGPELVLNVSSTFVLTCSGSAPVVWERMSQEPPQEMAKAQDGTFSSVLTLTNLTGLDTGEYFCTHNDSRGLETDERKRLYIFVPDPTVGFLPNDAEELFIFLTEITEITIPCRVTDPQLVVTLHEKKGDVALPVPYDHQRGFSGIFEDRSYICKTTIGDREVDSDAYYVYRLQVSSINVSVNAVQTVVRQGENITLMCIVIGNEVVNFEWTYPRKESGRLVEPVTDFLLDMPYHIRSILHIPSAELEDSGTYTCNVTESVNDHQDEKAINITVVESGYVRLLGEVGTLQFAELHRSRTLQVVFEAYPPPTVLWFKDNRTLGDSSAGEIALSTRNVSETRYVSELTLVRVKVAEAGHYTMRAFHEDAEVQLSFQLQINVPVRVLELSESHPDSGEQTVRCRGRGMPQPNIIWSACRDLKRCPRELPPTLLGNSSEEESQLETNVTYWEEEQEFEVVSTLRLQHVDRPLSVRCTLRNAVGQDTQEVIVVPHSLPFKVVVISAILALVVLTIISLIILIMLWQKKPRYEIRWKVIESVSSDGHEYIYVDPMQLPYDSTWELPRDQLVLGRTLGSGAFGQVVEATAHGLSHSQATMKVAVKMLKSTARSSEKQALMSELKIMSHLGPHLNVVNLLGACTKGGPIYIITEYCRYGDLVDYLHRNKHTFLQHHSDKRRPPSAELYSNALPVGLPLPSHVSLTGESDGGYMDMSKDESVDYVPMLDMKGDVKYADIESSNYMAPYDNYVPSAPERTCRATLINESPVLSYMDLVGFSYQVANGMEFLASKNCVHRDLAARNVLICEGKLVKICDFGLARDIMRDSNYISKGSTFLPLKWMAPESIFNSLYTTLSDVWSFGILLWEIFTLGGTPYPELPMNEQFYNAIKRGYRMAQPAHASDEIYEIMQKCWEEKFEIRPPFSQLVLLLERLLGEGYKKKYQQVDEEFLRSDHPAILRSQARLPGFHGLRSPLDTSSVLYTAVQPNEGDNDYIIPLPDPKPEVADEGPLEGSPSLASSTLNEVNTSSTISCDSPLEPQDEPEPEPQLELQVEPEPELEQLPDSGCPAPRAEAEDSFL
T2 sequence (P42338 whole entry): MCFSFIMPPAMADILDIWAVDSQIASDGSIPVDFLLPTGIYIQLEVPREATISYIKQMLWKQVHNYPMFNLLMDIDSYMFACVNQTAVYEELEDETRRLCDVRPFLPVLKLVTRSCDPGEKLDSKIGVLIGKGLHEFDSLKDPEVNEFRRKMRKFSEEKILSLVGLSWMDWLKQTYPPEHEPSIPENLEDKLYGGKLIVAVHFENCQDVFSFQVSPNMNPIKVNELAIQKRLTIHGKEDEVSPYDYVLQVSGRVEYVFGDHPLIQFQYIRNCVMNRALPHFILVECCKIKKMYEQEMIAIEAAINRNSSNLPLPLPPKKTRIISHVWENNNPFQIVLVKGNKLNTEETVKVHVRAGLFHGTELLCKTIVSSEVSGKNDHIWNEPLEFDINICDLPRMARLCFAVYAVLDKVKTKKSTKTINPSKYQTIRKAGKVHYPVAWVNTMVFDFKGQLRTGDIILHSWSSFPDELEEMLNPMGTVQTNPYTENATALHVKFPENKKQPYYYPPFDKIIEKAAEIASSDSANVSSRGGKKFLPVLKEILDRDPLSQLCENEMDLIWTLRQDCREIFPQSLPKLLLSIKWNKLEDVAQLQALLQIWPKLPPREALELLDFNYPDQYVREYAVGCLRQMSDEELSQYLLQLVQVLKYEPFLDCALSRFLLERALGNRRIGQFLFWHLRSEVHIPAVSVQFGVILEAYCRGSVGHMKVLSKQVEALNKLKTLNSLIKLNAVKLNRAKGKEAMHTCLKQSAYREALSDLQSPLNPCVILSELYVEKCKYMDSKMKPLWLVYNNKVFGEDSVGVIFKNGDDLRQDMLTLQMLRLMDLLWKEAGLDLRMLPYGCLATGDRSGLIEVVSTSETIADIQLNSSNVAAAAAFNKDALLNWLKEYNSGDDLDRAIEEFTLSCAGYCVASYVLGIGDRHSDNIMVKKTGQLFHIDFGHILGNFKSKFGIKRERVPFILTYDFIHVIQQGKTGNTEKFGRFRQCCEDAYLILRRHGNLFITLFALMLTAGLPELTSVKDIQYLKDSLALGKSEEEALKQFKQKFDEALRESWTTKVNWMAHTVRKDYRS
T2 sequence (P27986 whole entry partner): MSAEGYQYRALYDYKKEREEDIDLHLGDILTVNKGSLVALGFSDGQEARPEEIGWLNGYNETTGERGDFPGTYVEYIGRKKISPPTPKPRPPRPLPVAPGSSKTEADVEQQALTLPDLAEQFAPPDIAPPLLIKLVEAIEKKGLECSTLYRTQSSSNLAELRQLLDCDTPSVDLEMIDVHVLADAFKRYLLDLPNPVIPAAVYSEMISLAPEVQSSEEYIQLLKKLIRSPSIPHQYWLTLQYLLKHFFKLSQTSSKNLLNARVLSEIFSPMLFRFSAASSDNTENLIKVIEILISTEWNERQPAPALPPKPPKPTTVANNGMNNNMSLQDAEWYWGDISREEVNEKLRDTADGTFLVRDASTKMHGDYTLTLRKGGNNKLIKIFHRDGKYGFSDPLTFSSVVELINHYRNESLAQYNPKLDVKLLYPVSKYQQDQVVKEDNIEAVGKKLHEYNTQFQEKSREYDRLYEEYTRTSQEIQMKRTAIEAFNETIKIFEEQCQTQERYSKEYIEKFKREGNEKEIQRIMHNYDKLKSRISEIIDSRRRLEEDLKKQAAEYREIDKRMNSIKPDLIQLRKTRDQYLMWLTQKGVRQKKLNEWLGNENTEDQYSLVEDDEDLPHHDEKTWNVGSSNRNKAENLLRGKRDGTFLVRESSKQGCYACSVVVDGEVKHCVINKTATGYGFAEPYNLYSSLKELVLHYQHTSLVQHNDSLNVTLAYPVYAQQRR
T5 sequence (Q9UK32 whole entry): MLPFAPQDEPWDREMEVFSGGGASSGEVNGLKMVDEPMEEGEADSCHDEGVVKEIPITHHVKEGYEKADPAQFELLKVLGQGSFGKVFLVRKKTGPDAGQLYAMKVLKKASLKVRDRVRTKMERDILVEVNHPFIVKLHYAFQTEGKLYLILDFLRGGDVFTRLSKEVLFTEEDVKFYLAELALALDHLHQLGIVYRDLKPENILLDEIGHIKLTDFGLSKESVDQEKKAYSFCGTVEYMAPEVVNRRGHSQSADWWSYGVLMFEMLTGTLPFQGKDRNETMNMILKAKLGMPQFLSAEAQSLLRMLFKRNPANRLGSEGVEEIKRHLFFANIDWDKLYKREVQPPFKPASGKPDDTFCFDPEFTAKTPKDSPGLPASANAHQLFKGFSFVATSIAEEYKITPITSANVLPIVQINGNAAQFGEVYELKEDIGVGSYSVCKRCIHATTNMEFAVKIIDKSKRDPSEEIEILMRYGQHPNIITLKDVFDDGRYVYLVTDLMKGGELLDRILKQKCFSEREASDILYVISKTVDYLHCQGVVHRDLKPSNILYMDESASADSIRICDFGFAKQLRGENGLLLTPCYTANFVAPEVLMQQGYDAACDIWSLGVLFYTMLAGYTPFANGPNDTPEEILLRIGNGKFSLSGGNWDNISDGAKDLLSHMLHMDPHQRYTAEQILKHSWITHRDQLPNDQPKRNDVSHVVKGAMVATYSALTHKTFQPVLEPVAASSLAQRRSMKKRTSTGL

SMILES | remaining activity at 10 µM (PDGFRβ) [%] | remaining activity at 10 µM (PI3K (p110b/p85a)) [%] | remaining activity at 10 µM (ZAP-70) [%] | remaining activity at 10 µM (MINK) [%] | remaining activity at 10 µM (Rsk4) [%] | remaining activity at 10 µM (BTK) [%] | remaining activity at 10 µM (DRAK1) [%] | remaining activity at 10 µM (TrkA; 10 μM) [%] | inhibition at 10 µM (MKK6) [%] | remaining activity at 10 µM (MKK6) [%] | remaining activity at 10 µM (eEF-2K) [%] | remaining activity at 10 µM (MAPK1) [%] | remaining activity at 10 µM (NEK2) [%] | inhibition at 10 µM (TrkA; 10 μM) [%] | IC50 (TrkA; biochemical dose response, duplicate, read-out: Inhibition of indicated activity (IC50, μM): TrkA) [µM]
CC(C)(C)N1CCC(c2cc(-c3ccc(F)cc3Cl)c3cc[n+]([O-])c(-c4c(Cl)cccc4Cl)c3n2)CC1 [compound 2] | 70 | 92 | 105 | 104 | 102 | 114 | 99 | 91 | ~100 | 0 | 115 | 105 | 100 | – | –
Cn1cc(-c2cccc(-c3nc(C(=O)NC4C5CC6CC4CC(O)(C6)C5)c(N)nc3N)c2)cn1 (centres unmarked) [compound 4] | 63 | 71 | 104 | 94 | 110 | 89 | 89 | 14 | – | 80 | 115 | 96 | 85 | 86 | 3.23
CS(=O)(=O)N1CCN(c2ccc(Nc3ncc(C(N)=O)c(NC4CC4)n3)cc2)CC1 [compound 5] | 16 | 93 | 53 | 14 | 2 | 17 | 1 | 1 | – | 32 | 97 | 34 | 4 | – | –

Now from value to molecule, other results behind:

remaining activity at 10 µM (PDGFRβ) [%] | remaining activity at 10 µM (PI3K (p110b/p85a)) [%] | remaining activity at 10 µM (ZAP-70) [%] | remaining activity at 10 µM (MINK) [%] | remaining activity at 10 µM (Rsk4) [%] | remaining activity at 10 µM (BTK) [%] | remaining activity at 10 µM (DRAK1) [%] | remaining activity at 10 µM (TrkA; 10 μM) [%] | inhibition at 10 µM (MKK6) [%] | remaining activity at 10 µM (MKK6) [%] | remaining activity at 10 µM (eEF-2K) [%] | remaining activity at 10 µM (MAPK1) [%] | remaining activity at 10 µM (NEK2) [%] | SMILES | inhibition at 10 µM (TrkA; 10 μM) [%] | IC50 (TrkA; biochemical dose response, duplicate, read-out: Inhibition of indicated activity (IC50, μM): TrkA) [µM]
61 | 86 | 97 | 93 | 103 | 98 | 98 | 67 | ~100 | -3 | 111 | 88 | 99 | Cc1ccc(C(=O)NCC2CC2)cc1-c1ccc2c(c1)NC(=O)C21CCCC1 [compound 3] | – | –
82 | 87 | 104 | 110 | 131 | 112 | 144 | 68 | ~100 | -3 | 128 | 85 | 95 | COc1c(NC(=O)c2ccc(C)c(-c3nnc4c(NCC(C)(C)C)nccn34)c2)cc(C(C)(C)C)cc1NS(C)(=O)=O [compound 7, reference compound] | – | –
